Molecules are shown by their SMILES.

One experiment deals with Histone deacetylase 1 (Homo sapiens, UniProt Q13547). As to the kind of experiment: Inhibition of human recombinant HDAC1 pre-incubated for 30 mins before substrate addition and measured after 30 mins by fluorescence based assay.
Experiment [1] deals with Class 1 histone deacetylase (Homo sapiens, UniProt Q13547+O15379+Q92769+Q9BY41). The experiment in a line: Inhibition Class 1 histone deacetylase in human HeLa nuclear extracts using Fluor-de- Lys-green substrate by fluorescence assay. In kind it is cell-free.
The next experiment addresses Histone deacetylase 2 (Homo sapiens, UniProt Q92769). The experiment in a line: Inhibition of human recombinant HDAC2 pre-incubated for 30 mins before substrate addition and measured after 30 mins by fluorescence based assay.

Chain of Histone deacetylase 1 (Q13547 whole entry): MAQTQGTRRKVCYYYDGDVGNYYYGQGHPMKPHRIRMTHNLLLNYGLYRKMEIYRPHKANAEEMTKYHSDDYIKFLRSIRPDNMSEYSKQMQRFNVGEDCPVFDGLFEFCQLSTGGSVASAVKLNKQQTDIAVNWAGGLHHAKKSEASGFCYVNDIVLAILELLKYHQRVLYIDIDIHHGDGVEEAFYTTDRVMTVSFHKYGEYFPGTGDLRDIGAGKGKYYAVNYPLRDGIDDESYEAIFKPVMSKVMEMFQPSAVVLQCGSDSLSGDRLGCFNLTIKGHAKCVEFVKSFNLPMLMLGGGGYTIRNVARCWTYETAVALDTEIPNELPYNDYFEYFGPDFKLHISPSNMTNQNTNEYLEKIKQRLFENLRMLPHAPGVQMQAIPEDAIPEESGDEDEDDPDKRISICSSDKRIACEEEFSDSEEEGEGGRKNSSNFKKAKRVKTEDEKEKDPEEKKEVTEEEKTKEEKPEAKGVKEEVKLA
Chain of Histone deacetylase 2 (Q92769 whole entry): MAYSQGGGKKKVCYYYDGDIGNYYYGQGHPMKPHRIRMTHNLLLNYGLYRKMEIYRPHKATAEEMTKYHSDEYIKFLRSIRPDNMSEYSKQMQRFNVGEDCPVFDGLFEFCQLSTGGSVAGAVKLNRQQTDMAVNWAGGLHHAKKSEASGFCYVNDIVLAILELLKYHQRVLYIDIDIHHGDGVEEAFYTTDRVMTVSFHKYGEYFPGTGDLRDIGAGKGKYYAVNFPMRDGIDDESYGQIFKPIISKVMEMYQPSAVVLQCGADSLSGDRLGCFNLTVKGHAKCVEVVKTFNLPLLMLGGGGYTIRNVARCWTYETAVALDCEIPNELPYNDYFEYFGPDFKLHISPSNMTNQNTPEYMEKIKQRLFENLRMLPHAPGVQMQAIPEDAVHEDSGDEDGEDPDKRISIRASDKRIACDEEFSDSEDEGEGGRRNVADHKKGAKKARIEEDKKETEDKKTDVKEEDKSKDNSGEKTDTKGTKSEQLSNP

Take `COc1cccc(CNCc2ccc(/C=C/C(=O)NO)cc2)c1OC`: the IC50 (usually the concentration at which inhibition is half-maximal) at Histone deacetylase 1 stood at 602 nM; in experiment [1], 296 nM; on Histone deacetylase 2 it was 950 nM.
As to `COc1ccc(CNCc2ccc(/C=C/C(=O)NO)cc2)cc1`, the IC50 at Histone deacetylase 1 stood at 381 nM; in experiment [1] it was 195 nM; on Histone deacetylase 2, 926 nM.
As for `O=C(/C=C/c1ccc(CNCc2ccccc2)cc1)NO`, the IC50 in experiment [1] stood at 370 nM.
As for `COc1ccccc1CNCc1ccc(/C=C/C(=O)NO)cc1`, the IC50 at Histone deacetylase 1 was 610 nM; in experiment [1], 278 nM; at Histone deacetylase 2, 1490 nM.
Regarding `COc1cccc(OC)c1CNCc1ccc(/C=C/C(=O)NO)cc1`, the IC50 came to 636 nM on Histone deacetylase 1, 235 nM in experiment [1] and 1080 nM at Histone deacetylase 2.
In the same order, the values of `COc1ccc(OC)c(CNCc2ccc(/C=C/C(=O)NO)cc2)c1` are 620 nM, 292 nM and 1750 nM.
As for `COc1ccc(CNCc2ccc(/C=C/C(=O)NO)cc2)cc1OC`, the IC50 at Histone deacetylase 1 was 1260 nM; in experiment [1], 371 nM; on Histone deacetylase 2 it was 1890 nM.
In the same order, the values of `COc1cccc(CNCc2ccc(/C=C/C(=O)NO)cc2)c1` are 463 nM, 420 nM and 819 nM.
`COc1cc(CNCc2ccc(/C=C/C(=O)NO)cc2)cc(OC)c1`: the IC50 was 837 nM on Histone deacetylase 1, 415 nM in experiment [1] and 1270 nM at Histone deacetylase 2.
For the compound `COc1ccc(CNCc2ccc(/C=C/C(=O)NO)cc2)c(OC)c1`, the IC50 at Histone deacetylase 1 was 449 nM; in experiment [1], 258 nM; on Histone deacetylase 2, 994 nM.

(Values after ChEMBL document CHEMBL4385666, “Exploring hydroxamic acid inhibitors of HDAC1 and HDAC2 using small molecule tools and molecular or homology modelling” (Bioorg Med Chem Lett, 2019).)
